Data on one compound can be found in paper PMC2940876, “Familial hemiplegic migraine CaV2.1 channel mutation R192Q enhances ATP-gated P2X3 receptor activity of mouse sensory ganglion neurons mediating trigeminal pain” (2010).

The target in the experiment is T1, P2X3 receptor (Mus musculus, UniProt Q3UR32).
T1 construct: gene P2rx3; native receptor in cultured mouse trigeminal ganglion neurons (WT)
T1 sequence (Q3UR32 1-397): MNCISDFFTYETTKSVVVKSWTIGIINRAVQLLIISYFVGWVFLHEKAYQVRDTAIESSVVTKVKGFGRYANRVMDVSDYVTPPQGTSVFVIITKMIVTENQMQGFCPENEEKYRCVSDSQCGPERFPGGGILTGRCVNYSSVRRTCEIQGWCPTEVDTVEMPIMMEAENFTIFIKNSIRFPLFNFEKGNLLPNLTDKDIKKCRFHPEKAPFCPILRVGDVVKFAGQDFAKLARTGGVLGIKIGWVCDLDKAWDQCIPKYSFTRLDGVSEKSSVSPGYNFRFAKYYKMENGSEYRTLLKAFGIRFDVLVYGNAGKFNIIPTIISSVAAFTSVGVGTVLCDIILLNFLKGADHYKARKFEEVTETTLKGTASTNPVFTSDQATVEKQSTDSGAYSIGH
Briefly: whole-cell patch clamp, agonist concentration-response on native neurons. In kind it is cell-based.

What is called EC50 is the concentration giving half of the maximal effect. Read a high EC50 as a less potent agent. Turning to `Nc1ncnc2c1ncn2[C@@H]1O[C@H](COP(=O)(O)CP(=O)(O)OP(=O)(O)O)[C@@H](O)[C@H]1O` [α,β-meATP], the concentration for a half-maximal effect (EC50) was determined as 6.9 ± 1.1 µM.
